# Measurements reported in ChEMBL document CHEMBL5523723, “G Protein-Coupled Estrogen Receptor-Mediated Anti-Inflammatory and Mucosal Healing Activity of a Trimethylpyridinol Analogue in Inflammatory Bowel Disease” (J Med Chem, 2024).
# Tests used:
# [1] = target: CYP2D6 (Homo sapiens, UniProt P10635); experiment: Inhibition of CYP2D6 in human liver microsomes assessed as remaining activity at 10 uM using dextromethorphan as substrate preincubated for 5 mins followed by NADPH generating system addition for 15 mins by LC-MS/MS method relative to control; format: ADME, Microsome; conditions: probe dextromethorphan, time 20 min, read-out: Activity
# Chain of CYP2D6 (P10635 whole entry): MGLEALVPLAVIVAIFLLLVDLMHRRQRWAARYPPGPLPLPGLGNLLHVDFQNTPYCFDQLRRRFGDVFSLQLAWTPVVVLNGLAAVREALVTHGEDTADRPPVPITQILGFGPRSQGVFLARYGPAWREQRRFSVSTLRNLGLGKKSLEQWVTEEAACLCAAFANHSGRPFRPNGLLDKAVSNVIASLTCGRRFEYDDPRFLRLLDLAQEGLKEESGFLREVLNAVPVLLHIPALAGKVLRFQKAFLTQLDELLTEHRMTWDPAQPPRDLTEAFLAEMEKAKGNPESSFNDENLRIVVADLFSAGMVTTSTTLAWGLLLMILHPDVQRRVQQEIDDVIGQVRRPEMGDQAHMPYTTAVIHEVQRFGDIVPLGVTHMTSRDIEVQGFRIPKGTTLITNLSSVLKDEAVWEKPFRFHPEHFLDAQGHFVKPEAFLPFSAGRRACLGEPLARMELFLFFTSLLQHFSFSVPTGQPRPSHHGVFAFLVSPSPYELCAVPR
# [2] = Acute toxicity in ICR mouse assessed as change in heart weight at 30 to 300 mg/kg, po measured every other day for 14 days […]; format: organism-based; conditions: in vivo, 336 h, dose 30-300 mg/kg, time 14 day
# [3] = target: CYP3A4 (Homo sapiens, UniProt P08684); experiment: Inhibition of CYP3A4 in human liver microsomes assessed as remaining activity at 10 uM using midazolam as substrate preincubated for 5 mins followed by NADPH generating system addition for 15 mins by LC-MS/MS method relative to control; format: ADME, Microsome; conditions: probe midazolam, time 20 min, read-out: Activity
# Chain of CYP3A4 (P08684 whole entry): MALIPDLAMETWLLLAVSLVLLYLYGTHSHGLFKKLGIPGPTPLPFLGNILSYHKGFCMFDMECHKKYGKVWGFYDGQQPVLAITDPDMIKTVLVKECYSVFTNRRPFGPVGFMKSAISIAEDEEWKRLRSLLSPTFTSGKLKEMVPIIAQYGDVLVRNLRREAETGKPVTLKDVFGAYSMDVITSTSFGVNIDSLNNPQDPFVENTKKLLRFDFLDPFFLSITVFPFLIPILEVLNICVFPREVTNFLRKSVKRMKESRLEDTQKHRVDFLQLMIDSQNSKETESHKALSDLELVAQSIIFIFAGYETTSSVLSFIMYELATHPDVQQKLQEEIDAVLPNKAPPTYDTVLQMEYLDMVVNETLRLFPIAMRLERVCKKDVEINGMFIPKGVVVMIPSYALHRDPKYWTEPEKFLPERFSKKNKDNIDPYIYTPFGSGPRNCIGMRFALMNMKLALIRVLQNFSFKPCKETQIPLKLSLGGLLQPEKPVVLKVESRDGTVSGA
# [4] = Oral bioavailability in Sprague-Dawley rat at 5 mg/kg by LC-MS analysis; format: ADME, organism-based; conditions: in vivo
# [5] = Half-life in Sprague-Dawley rat at 1 mg/kg, iv by LC-MS analysis; format: ADME, organism-based; conditions: in vivo
# [6] = Mean residence time in Sprague-Dawley rat at 5 mg/kg, po by LC-MS analysis; format: ADME, organism-based; conditions: in vivo
# [7] = Mean residence time in Sprague-Dawley rat at 1 mg/kg, iv by LC-MS analysis; format: ADME, organism-based; conditions: in vivo
# [8] = target: T1, CYP1A2 (Homo sapiens, UniProt P05177); experiment: Inhibition of CYP1A2 in human liver microsomes assessed as remaining activity at 10 uM using phenacetin as substrate preincubated for 5 mins followed by NADPH generating system addition for 15 mins by LC-MS/MS method relative to control; format: ADME, Microsome; conditions: probe phenacetin, time 20 min, read-out: Activity
# T1 sequence (P05177 whole entry): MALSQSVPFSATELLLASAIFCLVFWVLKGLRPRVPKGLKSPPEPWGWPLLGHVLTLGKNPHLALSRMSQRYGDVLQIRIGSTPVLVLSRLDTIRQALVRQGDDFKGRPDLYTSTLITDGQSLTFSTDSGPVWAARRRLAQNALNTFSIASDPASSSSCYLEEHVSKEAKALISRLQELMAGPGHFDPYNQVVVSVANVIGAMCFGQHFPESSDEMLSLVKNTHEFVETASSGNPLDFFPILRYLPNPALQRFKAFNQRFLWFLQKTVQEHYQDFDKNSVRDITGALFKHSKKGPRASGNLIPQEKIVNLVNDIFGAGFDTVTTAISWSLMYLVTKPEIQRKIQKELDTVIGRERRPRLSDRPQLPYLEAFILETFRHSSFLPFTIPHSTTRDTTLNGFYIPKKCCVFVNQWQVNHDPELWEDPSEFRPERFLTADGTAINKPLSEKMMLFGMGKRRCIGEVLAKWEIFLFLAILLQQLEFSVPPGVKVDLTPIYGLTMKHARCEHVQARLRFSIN
# [9] = Oral bioavailability in Sprague-Dawley rat at 1 mg/kg by LC-MS analysis; format: ADME, organism-based; conditions: in vivo
# [10] = target: hERG (Homo sapiens, UniProt Q12809); experiment: Inhibition of hERG expressed in HEK cells assessed as remaining activity at 10 uM by automated patch clamp method relative to control; format: toxicity, cell-based; conditions: HEK cells expressing hERG, read-out: Activity
# Chain of hERG (Q12809 whole entry): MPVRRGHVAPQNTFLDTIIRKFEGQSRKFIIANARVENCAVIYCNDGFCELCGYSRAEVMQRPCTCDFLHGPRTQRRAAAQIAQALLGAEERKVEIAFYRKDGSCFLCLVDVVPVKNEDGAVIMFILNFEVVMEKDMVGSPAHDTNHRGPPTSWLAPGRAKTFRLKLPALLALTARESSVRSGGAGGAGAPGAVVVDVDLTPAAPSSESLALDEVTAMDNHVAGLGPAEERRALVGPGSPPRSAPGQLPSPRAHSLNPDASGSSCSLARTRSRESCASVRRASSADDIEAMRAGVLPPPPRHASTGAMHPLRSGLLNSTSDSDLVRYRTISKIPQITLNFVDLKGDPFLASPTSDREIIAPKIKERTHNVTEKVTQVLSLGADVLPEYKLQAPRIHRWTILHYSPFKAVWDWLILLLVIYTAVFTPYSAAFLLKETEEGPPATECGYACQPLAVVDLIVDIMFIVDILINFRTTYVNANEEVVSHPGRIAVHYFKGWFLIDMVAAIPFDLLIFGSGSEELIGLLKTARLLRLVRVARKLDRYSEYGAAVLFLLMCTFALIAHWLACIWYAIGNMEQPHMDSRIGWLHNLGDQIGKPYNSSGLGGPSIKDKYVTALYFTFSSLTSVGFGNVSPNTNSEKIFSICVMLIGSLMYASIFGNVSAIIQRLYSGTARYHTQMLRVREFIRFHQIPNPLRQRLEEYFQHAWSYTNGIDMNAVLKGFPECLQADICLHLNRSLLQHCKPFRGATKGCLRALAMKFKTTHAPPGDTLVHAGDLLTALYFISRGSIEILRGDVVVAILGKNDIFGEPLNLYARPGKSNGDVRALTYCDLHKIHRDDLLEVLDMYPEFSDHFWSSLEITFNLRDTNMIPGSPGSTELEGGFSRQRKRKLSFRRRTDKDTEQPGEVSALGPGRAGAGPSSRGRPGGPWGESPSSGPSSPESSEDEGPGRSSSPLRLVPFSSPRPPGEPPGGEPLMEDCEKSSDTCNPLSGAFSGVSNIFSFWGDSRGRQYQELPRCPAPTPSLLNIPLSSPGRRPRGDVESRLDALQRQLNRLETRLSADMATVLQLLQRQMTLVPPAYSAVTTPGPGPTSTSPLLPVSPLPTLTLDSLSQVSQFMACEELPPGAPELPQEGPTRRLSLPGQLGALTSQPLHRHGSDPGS
smiles,measurement,setting,value
Cc1nc(NC(=O)c2sc3cc(F)ccc3c2Cl)c(C)c(C)c1O,"activity at 0.25 h, 10 µM",[1],86%
same,Activity,[2],Non-Toxic
same,"activity at 0.25 h, 10 µM",[3],89.9%
same,F,[4],36.7%
same,half-life,[5],2 h
same,MRT,[6],5 h
same,MRT,[7],1.2 h
same,"activity at 0.25 h, 10 µM",[8],89.2%
same,F,[9],24.5%
same,activity at 10 µM,[10],91.7%
